Source: paper PMC8863579, “Effects of pharmacological inhibition of the sodium‐dependent phosphate cotransporter 2b (NPT2b) on intestinal phosphate absorption in mouse and rat models” (Pharmacology Research & Perspectives, 2022)
Where “and” joins values, the source holds several entries; their conditions need not be identical. Identical values can stand only once. Like-named read-outs stand apart in the source and are kept apart here.

Experiments:
[1] = Pharmacokinetic study in mice; assay type: in vivo, mouse; conditions: for bioavailability: po
Description: Male CD‐1 male mice were orally dosed with 1, 3, or 10 mg/kg API of LY3358966 SDD dissolved in water or were IV dosed with 1 mg/kg LY3358966 formulated in 25% dimethylacetamide, 15% ethanol, 10% propylene glycol, 25% 2‐pyrrolidone, and 25% water. Each dose group contained six animals. Three animals were bled at 0.25, 0.5, 1, 2, 4, 8, 12, and 24 h, with each animal being bled at alternate time points. Plasma drug levels were determined by HPLC/MS. The unbound fraction of LY3358966 in plasma was determined with equilibrium dialysis and LC‐MS/MS.

NPT2b = target: T1, NPT2b (Rattus norvegicus, UniProt Q9JJ09); assay: Acute phosphate uptake into plasma in rats; assay type: in vivo; conditions: 10 mg/kg
T1 construct: from tissue; host or cells: intestine of live Sprague Dawley rats, oral dosing
T1 sequence (Q9JJ09 1-695): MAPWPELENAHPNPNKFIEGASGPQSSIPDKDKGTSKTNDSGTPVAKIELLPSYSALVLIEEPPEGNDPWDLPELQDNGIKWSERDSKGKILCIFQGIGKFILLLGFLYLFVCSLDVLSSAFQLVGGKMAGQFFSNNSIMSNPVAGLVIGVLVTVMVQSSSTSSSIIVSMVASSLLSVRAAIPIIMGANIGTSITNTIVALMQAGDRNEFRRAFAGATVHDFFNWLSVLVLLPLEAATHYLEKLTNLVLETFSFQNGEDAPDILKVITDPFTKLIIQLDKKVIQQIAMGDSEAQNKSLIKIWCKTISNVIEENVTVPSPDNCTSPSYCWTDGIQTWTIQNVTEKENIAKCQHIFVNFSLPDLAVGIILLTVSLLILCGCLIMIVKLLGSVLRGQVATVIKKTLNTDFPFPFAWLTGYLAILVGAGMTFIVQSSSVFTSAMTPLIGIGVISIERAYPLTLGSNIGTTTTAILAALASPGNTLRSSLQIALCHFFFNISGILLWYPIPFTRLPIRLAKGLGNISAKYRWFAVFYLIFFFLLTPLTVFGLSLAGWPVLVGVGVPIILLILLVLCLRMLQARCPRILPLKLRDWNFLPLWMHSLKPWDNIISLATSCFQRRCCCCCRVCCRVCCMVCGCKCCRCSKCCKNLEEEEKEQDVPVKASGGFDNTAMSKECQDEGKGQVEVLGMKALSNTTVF
Description: A similar method was used to determine the ability of LY3358966 to inhibit acute phosphate uptake into plasma in Sprague Dawley rats (192–225 g, n = 14/group). In the rat studies, a 2 ml volume of the radioactive phosphate dosing solution (about 10 million dpm of H3 ^33PO4) was dosed to each animal. Due to the low inhibitory activity at 15 min after dosing the compound, the effect at 4 h was not determined.

gastric emptying = assay: Gastric emptying assay in mice; assay type: in vivo, mouse; conditions: doses up to 100 mg/kg API
Description: Male C57BL/6 mice, approximately 7–8 weeks old (18–21 g), were fasted overnight. Then, the mice were orally administered a single dose of vehicle (water) or varying doses of LY3358966 SDD dissolved in water. Fifteen minutes later, radiolabeled phosphate was given by oral gavage. Another 15 min later, the animals were sacrificed, and intact stomachs were collected and placed in 50‐ml conical tubes. Ten milliliter of 1 N NaOH was added to each tube and the stomachs were digested at 37°C overnight. Radioactivity in 100 µl digested stomach homogenate was quantitated by scintillation counting. The percent radiolabeled phosphate recovered in the stomach was calculated as the percentage of dpm recovered in the stomach versus the total dpm of radiolabeled phosphate administered.

[2] = tested on: intestinal phosphate absorption; assay: Recovery of radiolabeled phosphate in feces of mice; assay type: in vivo, mouse
Description: Male C57BL/6 male mice, 9 weeks old (23–28 g, n = 10/group), were dosed with either placebo or LY3358966 SDD (9 mg/kg API) dissolved in water at t = −4.25, −0.25, and 3.75 h. The animals were fasted from t = −4 to t = 0 h. At t = 0, the animals were dosed with radiolabeled phosphate as described above and were given free access to food. Feces were collected at 6, 24, and 48 h, digested overnight at 37°C in 1 N NaOH, and the recovered radioactivity was determined. Most of the radiolabeled phosphate was recovered in the first 24 h. […] In all cases, the investigators collecting feces were blinded to the treatment.

[3] = tested on: intestinal phosphate absorption; assay: Recovery of radiolabeled phosphate in gastrointestinal tract of rats at 4 h; assay type: in vivo, rat; conditions: LY3358966 10 mg/kg
Description: Male Sprague Dawley rats, 260–287 g for the first study and 274–362 g for the second study, were fasted for 4 h (the first 4 h of the light cycle) then dosed with placebo, a 50 or 150 mg/kg sevelamer HCl water dispersion, LY3358966 SDD (10 mg/kg API) dissolved in water, or a combination of LY3358966 SDD and sevelamer HCl. Fifteen minutes later, the animals were dosed with radiolabeled phosphate as described above. In the first study, the animals were given free access to food, then feces were collected at 6, 24, and 48 h post radiolabeled phosphate dose. In the second study, the animals were fasted an additional 4 h, then feces, stomach, small intestine, and large intestine were individually collected. The gastrointestinal tract tissues and feces were digested overnight at 37°C in 1 N NaOH, and the recovered radioactivity was determined.

[4] = across all dose groups, from unbound fraction 0.005
[5] = male, CD-1, mouse, plasma, IV 1 mg/kg
[6] = male, CD-1, mouse, plasma, PO 1 mg/kg
[7] = male, CD-1, mouse, plasma, PO 3 mg/kg
[8] = male, CD-1, mouse, plasma, PO 10 mg/kg
[9] = 9 mg/kg API x 3 doses at 4-h intervals

Compound: CC1(C)CN(C(=O)NCCCCO)CCN1Cc1cccc(C(=O)Nc2sc3c(c2C(=O)Nc2cc(F)c(CCc4ccc(C(=O)O)cc4)c(F)c2)CCCC3)c1 [LY3358966, 4‐[2‐[2,6‐difluoro‐4‐[[2‐[[3‐[[4‐(4‐hydroxybutylcarbamoyl)‐2,2‐dimethyl‐piperazin‐1‐yl]methyl]benzoyl]amino]‐4,5,6,7‐tetrahydrobenzothiophene‐3‐carbonyl]amino]phenyl]ethyl]benzoic acid]
- C max of unbound LY3358966 [1, 4]: < 1 nM
- plasma AUC of unbound LY3358966 [1, 4]: < 0.002 µM·h
- AUC [1, 5]: 0.323 µM·h
- half-life [1, 5]: 300 min
- Cmax [1, 6]: 25 nM
- Tmax [1, 6]: 24 min
- AUC ([1]; male, CD-1, mouse, plasma, PO 1 mg/kg, SDD dissolved in water): 0.039 µM·h
- Cmax [1, 7]: 50 nM
- Tmax [1, 7]: 24 min
- AUC ([1]; male, CD-1, mouse, plasma, PO 3 mg/kg, SDD dissolved in water): 0.096 µM·h
- Cmax [1, 8]: 83 nM
- Tmax [1, 8]: 24 min
- AUC ([1]; male, CD-1, mouse, plasma, PO 10 mg/kg, SDD dissolved in water): 0.284 µM·h
- bioavailability ([1]; male, CD-1, mouse, plasma, 1 mg/kg, PO 1 mg/kg, read-out: F (bioavailability)): 12%
- bioavailability ([1]; male, CD-1, mouse, plasma, 3 mg/kg, PO 3 mg/kg, read-out: F (bioavailability)): 10%
- bioavailability ([1]; male, CD-1, mouse, plasma, 10 mg/kg, PO 10 mg/kg, read-out: F (bioavailability)): 9%
- bioavailability ([1]; male, CD-1, mouse, plasma, 10 mg/kg, PO 1, 3 and 10 mg/kg, read-out: oral bioavailability F): 9 to 12%
- decrease of acute phosphate uptake into plasma, mean ± SEM of three studies (NPT2b; 15 min): 22% and 22 ± 3%
- decrease of phosphate absorption (acute uptake into plasma) (NPT2b; two additional single studies): 28.2% and 19.2%
- effect on gastric emptying (gastric emptying): no effect on gastric emptying
- 33P Recovered in Feces (0-6 hrs), Mean ± SEM [2, 9]: 6.08 ± 1.68%
- 33P Recovered in Feces (6-24 hrs), Mean ± SEM [2, 9]: 10.77 ± 1.57%
- 33P Recovered in Feces (24-48 hrs), Mean ± SEM [2, 9]: 1.60 ± 0.08%
- 33P Recovered in Total Feces (0-48 hrs), Mean ± SEM ([2]; 9 mg/kg API x 3 doses at 4-h intervals, 9 mg/kg): 18.44% and 18.44 ± 1.27%
- increase in radiolabeled phosphate recovered in feces versus vehicle ([2]; 48 h, 9 mg/kg API x 3, 9 mg/kg): 8.6 % of the dose and 8.58 % of the dose
- increase of 33P-phosphate recovery in the gastrointestinal tract over vehicle ([3]; 4 h): 6.34%
- 33P Recovered in G.I. Tract, Large Intestine (means ± SEM) ([3]; 4 hours): 13.75 ± 2.83%
- 33P Recovered in G.I. Tract, Small Intestine (means ± SEM) ([3]; 4 hours): 15.51 ± 2.37%
- 33P Recovered in G.I. Tract, Stomach (means ± SEM) ([3]; 4 hours): 1.83 ± 0.41%
- 33P Recovered in Total G.I. Tract (means ± SEM) ([3]; 4 hours, 10 mg/kg): 31.09% and 31.09 ± 1.38%
